# From US20190054054A1, “Methods reducing or preventing oxidation of high density lipoprotein (HDL)” (Amarin Pharmaceuticals Ireland Limited, priority 2017, published 2019)
# What was measured:
# [1] = tested on: sdLDL isolated from human plasma; assay: Copper-induced sdLDL oxidation for 1 hour (Example 12); type: biochemical; details: 10.0 μM; sdLDL 200 μg/mL; copper-induced oxidation 1 hour
# [2] = Cholesterol domain formation by small angle x-ray diffraction (Example 3); details: PUFA-enriched model membranes, after autoxidation
# Description: Cholesterol domain peak intensity was calculated from multiple small angle x-ray diffraction measurements, which are directly proportional to domain levels. […] EPA-treated membranes reduced LOOH levels by greater than 90% (728±30 μM) compared to untreated controls (p<0.001).
# [3] = tested on: rat renal glomerular endothelial cells; assay: NO and ONOO^− release ex vivo from rat glomerular endothelial cells exposed to oxLDL and high glucose (Example 13); type: cell-based; details: oxLDL 11 mg/dL and glucose 300 mg/dL, treatment 1 hr at 10.0 μM
# Description: Healthy male Wistar Kyoto (WKY) rats, aged 7-9 weeks and weighing 250±20 g, were obtained from inbred colonies (National Institutes of Health, Bethesda, Md.). Animals were housed in a controlled environment that provided food and water ad libitum prior to the study. […] Animals were sacrificed and tissue samples obtained immediately for experimentation. All procedures were conducted in accordance with standard Institutional Animal Care and Use Committee guidelines and conformed to the Guide for the Care and Use of Laboratory Animals published by the US National Institutes of Health.
# EPA and DHA were purchased from Sigma-Aldrich (St. Louis, Mo.) and solubilized in ethanol to 1.0 mM under nitrogen atmosphere. […] The calcium ionophore (Cal), A23187, was purchased from Sigma-Aldrich and prepared in aqueous buffer to 1.0 mM. All test compounds were further diluted in ethanol or aqueous buffer as needed.
# Venous blood from healthy normolipidemic volunteers was collected into Na-EDTA (1 mg/mL blood) vacuum tubes after a 12-hour fast. […] The LDL fraction was dialyzed for 96 hours against PBS containing 0.3 mM EDTA and stored at 4° C. until experimental use.
# LDL was oxidized according to the methods of Huber et al. 16 Briefly, the purified LDL fraction was dialyzed against Tris/NaCl Buffer (50 mM Tris in 0.15 M NaCl, pH 8.0) to remove EDTA. Additional buffer was added to adjust the protein concentration to 30 mg/mL. LDL oxidation was initiated with 20 μM CuSO4 and monitored spectrophotometrically (234 nm) over a period of 24 hours until complete. The oxLDL was then dialyzed at 4° C. with 4 L Tris buffer, filtered with a 0.22 µm filter, and stored under nitrogen at 4° C.
# Immediately after sacrificing the rats, kidneys were removed, cut into […] sections and transferred to a separate organ chamber containing Dulbecco's phosphate buffered saline ([…]) and […] glucose at pH 7.4.
# Concurrent measurements of NO and ONOO^− were performed on intact glomerular (cortical zone) endothelial cells using tandem electrochemical nanosensors, as previously described (FIG. 45).
# The NO/ONOO^− nanosensor was positioned near the surface of the endothelial cells using a computer-controlled M3301 micromanipulator (x-y-z resolution of 0.2 μm) and microscope (both from World Precision Instruments, Berlin, Germany) fitted with a CD camera. Each analyte was measured from amperograms and standard calibration curves collected under maximum current. […] After establishing a background current, maximal NO and ONOO^− release was induced by injecting Cal into the organ chamber using a nanoinjector (World Precision Instruments, Berlin Germany). Changes in current (proportional to the molar concentrations of NO or ONOO^− released) were monitored continuously immediately following Cal stimulation.
# Data are presented as mean+standard deviation (SD) for (N) separate samples or experiments. Differences between groups were analyzed using the unpaired, two-tailed Student's t-test (for comparisons between only two groups) or ANOVA followed by Student-Newman-Keuls multiple comparisons post hoc analysis (for comparisons between three or more groups). Only differences with probability values less than 0.05 were considered significant.
structure (smiles),measurement,setting,value
"CC/C=C\C/C=C\C/C=C\C/C=C\C/C=C\CCCC(=O)O [EPA, cis-5,8,11,14,17-eicosapentaenoic acid]",reduction of sdLDL oxidation compared to vehicle treatment alone,[1],> 90%
same,cholesterol crystalline domain formation,[2],inhibits cholesterol crystalline domain formation
same,NO/ONOO^− Ratio,[3],1.08
same,increase in NO release,[3]; versus vehicle,205%
same,increase of the NO/ONOO^− ratio,[3]; versus vehicle,more than 4 fold
same,reduction of ONOO^− release,[3]; versus vehicle,27%
